Measured values as given in publication PMC7399811, “Analogues of a Cyclic Antimicrobial Peptide with a Flexible Linker Show Promising Activity against Pseudomonas aeruginosa and Staphylococcus aureus” (Antibiotics, 2020).
In brackets after ≈: the same amount, converted by molar mass. Square brackets hold non-standard residues; d marks the D form. Peptide text beside a SMILES is read from it. Bip = N[C@@H](Cc1ccc(-c2ccccc2)cc1)C(=O)O; 2Nal = N[C@@H](Cc1ccc2ccccc2c1)C(=O)O; Dab = NCC[C@H](N)C(=O)O; AEEA = NCCOCCOCC(=O)O

How the values were obtained:
[1] = test system: A. baumannii ATCC 19606; type: cell-based; conditions: ATCC 19606
Experimental: (§1) Bacterial strains (E. coli ATCC 29522, S. aureus ATCC 29213, A. baumannii ATCC 19606, and P. aeruginosa ATCC 27853) were grown overnight on LB agar plates at 37 °C. Overnight cultures were prepared by inoculation of two to three colonies in 10 mL non-cation adjusted Mueller–Hinton broth (MHB) media (BD BBLTM Beef extract powder, BD BactoTMCasamino acids, and DIFCO soluble starch). Bacterial inoculum for MIC testing was prepared as balanced cultures, as previously described. The bacterial suspension was adjusted using MHB to an OD600 of 0.1, approximately 1·10^8 colony forming units (CFU/mL), and then diluted 1:200 in MHB, to give a final bacterial suspension of 5·10^5 CFU/mL, as described by Wiegand et al.. […] For MIC determination, all peptides were measured in triplicates using the protocol described by Wiegand et al. for “antimicrobial peptides that require the presence of acetic acid/BSA”. In brief, 20 µL peptide solution and gentamycin solution was transferred to column 1 of 96-well plates. Next, 10 µL 0.2% BSA; 0.01% acetic acid MHB media was transferred to column 2–11. Subsequently, peptides were serially diluted two-fold in the MIC plate and 90 µL bacterial suspension was transferred to all wells in column 1–11. Next, 100 µL bacterial suspension was transferred to column 12 D–F (growth control) and 100 µL media to column 12 A–C (sterility control). After an overnight incubation at 37 °C of the MIC plates, MIC values were determined as the lowest concentration at which there was no visible bacterial growth. For the inoculum control, 10 µL of solution from a positive-growth control well from each bacterial strain was dissolved in 990 µL phosphate-buffered saline (PBS) (1:100 dilution) in an Eppendorf tube. This solution was vortexed and 100 µL transferred to another Eppendorf tube containing 900 µL PBS (1:10 dilution) and vortexed. Then, 100 µL of each dilution was spread onto the MHB media plates, in triplicates, to achieve a CFU dilution of 1:1000 and 1:10,000, respectively. The plates were incubated overnight at 37 °C. The colonies were counted and 50 colonies were expected on the 1:10,000 plates and 500 on the 1:1000 plates.

[2] = test system: E. coli ATCC 29522; type: cell-based; conditions: ATCC 29522
Experimental: as §1

[3] = test system: P. aeruginosa ATCC 27853; type: cell-based
Experimental: as §1

[4] = test system: S. aureus ATCC 29213; type: cell-based
Experimental: as §1

[5] = test system: red blood cells; conditions: at 150 µM peptide; 0.5% v/v RBC in PBS, 1 h 37 °C, absorbance 414 nm, normalized to melittin (100%) and PBS (0%)
Experimental: A total of 150 µL of 5 µM melittin was added to the positive control wells 1-6H of a V-shaped 96-well polypropylene plate and left overnight. The melittin solution was removed and the positive control wells were washed 3 times with 150 µL PBS. Afterwards, a 2.5 µM melittin solution was added to the positive control wells. For the assay, 0-negative blood in EDTA was used. Blood was washed by mixing 3 mL of PBS with 1 mL of whole blood, and centrifuged for 8 min at 3000 rpm. The supernatant was discarded and 4 mL of PBS added, mixed gently, and centrifuged. This wash cycle was repeated but the last centrifuge velocity was raised to 4000 rpm. Next, 40 µL red blood cells (RBC) was suspended in 8 mL of PBS to achieve an RBC suspension of 0.5% volume/volume (v/v). Peptide solutions were prepared at 600 µM, two times the highest concentration. A total of 150 µL peptide solution was transferred to row A. Next, 75 µL PBS was transferred to wells B1 to G12, as well as H7-12 (negative control), and the peptides were serially diluted two-fold. Then, 75 µL RBC suspension was added to all wells and the plate was covered with a Microseal® film and incubated for 1 h at 37 °C. Next, the plate was centrifuged for 10 min at 4000 rpm. Subsequently, 60 µL supernatant was transferred into the corresponding wells of a clear, polystyrene, flat-bottomed 96-well ELISA plate. The absorbance was read at λ = 414 nm with a VersaMaxTM Tunable Microplate Reader and the data were evaluated on Softmax® Pro. The results were normalized with respect to the average positive (100%) and negative (0%) controls, as described previously [43].

Row | Compound | Minimum inhibitory concentration AB [1] [mg/L] | Minimum inhibitory concentration EC [2] [mg/L] | Minimum inhibitory concentration PA [3] [mg/L] | Minimum inhibitory concentration SA [4] [mg/L] | percent hemolytic activity against red blood cells (%H) [5] [%]
1 | NCCCC[C@@H]1NC(=O)[C@H](Cc2ccc3ccccc3c2)NC(=O)COCCOCCNC(=O)[C@H](Cc2ccc(-c3ccccc3)cc2)NC(=O)[C@H](CCCCN)NC(=O)[C@H](CCCCN)NC(=O)[C@H](Cc2ccc3ccccc3c2)NC(=O)[C@H](CCCCN)NC(=O)[C@H](CC(N)=O)NC1=O [BSI-9, cyclo(Lys-Nal-Lys-Lys-Bip-O2Oc-Nal-Lys-Asn), reference compound] (cyclo(K[2Nal]KK[Bip][AEEA][2Nal]KN)) | 32 (≈ 23 µM) | 64 (≈ 46.1 µM) | 16 (≈ 11.5 µM) | 32 (≈ 23 µM) | 33
2 | NCCCC[C@@H]1NC(=O)[C@H](CCCCN)NC(=O)[C@H](Cc2ccc3ccccc3c2)NC(=O)[C@H](CCCCN)NC(=O)[C@H](CCCCN)NC(=O)[C@H](CC(N)=O)NC(=O)[C@H](Cc2ccc3ccccc3c2)NC(=O)COCCOCCNC(=O)[C@H](Cc2ccc(-c3ccccc3)cc2)NC1=O [compound 1] (cyclo(K[2Nal]KK[Bip][AEEA][2Nal]NK)) | 32 (≈ 23 µM) | >64 | 32 (≈ 23 µM) | >64 | 
3 | NCCCC[C@@H]1NC(=O)[C@H](Cc2ccc3ccccc3c2)NC(=O)COCCOCCNC(=O)[C@H](Cc2ccc(-c3ccccc3)cc2)NC(=O)[C@H](CC(N)=O)NC(=O)[C@H](CCCCN)NC(=O)[C@H](Cc2ccc3ccccc3c2)NC(=O)[C@H](CCCCN)NC(=O)[C@H](CCCCN)NC1=O [compound 2] (cyclo(K[2Nal]KN[Bip][AEEA][2Nal]KK)) | >64 | >64 | 64 (≈ 46.1 µM) | >64 | 
4 | NCCCC[C@@H]1NC(=O)[C@H](Cc2ccc3ccccc3c2)NC(=O)COCCOCCNC(=O)[C@H](Cc2ccc(-c3ccccc3)cc2)NC(=O)[C@H](CCCCN)NC(=O)[C@H](CC(N)=O)NC(=O)[C@H](Cc2ccc3ccccc3c2)NC(=O)[C@H](CCCCN)NC(=O)[C@H](CCCCN)NC1=O [compound 3] (cyclo(K[2Nal]NK[Bip][AEEA][2Nal]KK)) | 64 (≈ 46.1 µM) | >64 | 64 (≈ 46.1 µM) | 64 (≈ 46.1 µM) | 
5 | NCCCC[C@@H]1NC(=O)[C@H](Cc2ccc3ccccc3c2)NC(=O)COCCOCCNC(=O)[C@H](Cc2ccc(-c3ccccc3)cc2)NC(=O)[C@H](CCCCN)NC(=O)[C@H](CCCCN)NC(=O)[C@H](Cc2ccc3ccccc3c2)NC(=O)[C@H](CC(N)=O)NC(=O)[C@H](CCCCN)NC1=O [compound 4] (cyclo(N[2Nal]KK[Bip][AEEA][2Nal]KK)) | 64 (≈ 46.1 µM) | >64 | 64 (≈ 46.1 µM) | >64 | 
6 | NCCCC[C@@H]1NC(=O)[C@H](Cc2ccc3ccccc3c2)NC(=O)COCCOCCNC(=O)[C@H](Cc2ccc(-c3ccccc3)cc2)NC(=O)[C@H](CCCCN)NC(=O)[C@H](CCCCN)NC(=O)[C@H](Cc2ccccc2)NC(=O)[C@H](CCCCN)NC(=O)[C@H](CC(N)=O)NC1=O [compound 5] (cyclo(KFKK[Bip][AEEA][2Nal]KN)) | >64 | >64 | 32 (≈ 23.9 µM) | >64 | 4
7 | NCCCC[C@@H]1NC(=O)[C@H](Cc2ccc3ccccc3c2)NC(=O)COCCOCCNC(=O)[C@H](Cc2ccccc2)NC(=O)[C@H](CCCCN)NC(=O)[C@H](CCCCN)NC(=O)[C@H](Cc2ccc3ccccc3c2)NC(=O)[C@H](CCCCN)NC(=O)[C@H](CC(N)=O)NC1=O [compound 6] (cyclo(K[2Nal]KKF[AEEA][2Nal]KN)) | >64 | >64 | 32 (≈ 24.4 µM) | >64 | 6
8 | NCCCC[C@@H]1NC(=O)[C@H](Cc2ccccc2)NC(=O)COCCOCCNC(=O)[C@H](Cc2ccc(-c3ccccc3)cc2)NC(=O)[C@H](CCCCN)NC(=O)[C@H](CCCCN)NC(=O)[C@H](Cc2ccc3ccccc3c2)NC(=O)[C@H](CCCCN)NC(=O)[C@H](CC(N)=O)NC1=O [compound 7] (cyclo(K[2Nal]KK[Bip][AEEA]FKN)) | 64 (≈ 47.8 µM) | >64 | 64 (≈ 47.8 µM) | >64 | 7
9 | NCCCC[C@@H]1NC(=O)[C@H](Cc2ccccc2)NC(=O)COCCOCCNC(=O)[C@H](Cc2ccccc2)NC(=O)[C@H](CCCCN)NC(=O)[C@H](CCCCN)NC(=O)[C@H](Cc2ccccc2)NC(=O)[C@H](CCCCN)NC(=O)[C@H](CC(N)=O)NC1=O [compound 8] (cyclo(KFKKF[AEEA]FKN)) | >64 | >64 | >64 | >64 | 3
10 | N=C(N)NCCC[C@@H]1NC(=O)[C@H](CC(N)=O)NC(=O)[C@H](CCN)NC(=O)[C@H](Cc2ccc3ccccc3c2)NC(=O)COCCOCCNC(=O)[C@H](Cc2ccc(-c3ccccc3)cc2)NC(=O)[C@H](CCN)NC(=O)[C@H](CCN)NC(=O)[C@H](Cc2ccc3ccccc3c2)NC1=O [compound 10] (cyclo(R[2Nal][Dab][Dab][Bip][AEEA][2Nal][Dab]N)) | 32 (≈ 24 µM) | 32 (≈ 24 µM) | 2 (≈ 1.5 µM) | 2 (≈ 1.5 µM) | 66
11 | N=C(N)NCCC[C@@H]1NC(=O)[C@H](CCN)NC(=O)[C@H](Cc2ccc3ccccc3c2)NC(=O)[C@H](CCN)NC(=O)[C@H](CC(N)=O)NC(=O)[C@H](CCN)NC(=O)[C@H](Cc2ccc3ccccc3c2)NC(=O)COCCOCCNC(=O)[C@H](Cc2ccc(-c3ccccc3)cc2)NC1=O [compound 12] (cyclo([Dab][2Nal][Dab]R[Bip][AEEA][2Nal][Dab]N)) | 32 (≈ 24 µM) | 32 (≈ 24 µM) | 4 (≈ 3 µM) | 1 (≈ 0.75 µM) | 98
12 | N=C(N)NCCC[C@@H]1NC(=O)[C@H](Cc2ccc3ccccc3c2)NC(=O)COCCOCCNC(=O)[C@H](Cc2ccc(-c3ccccc3)cc2)NC(=O)[C@H](CCCNC(=N)N)NC(=O)[C@H](CCCNC(=N)N)NC(=O)[C@H](Cc2ccc3ccccc3c2)NC(=O)[C@H](CCCNC(=N)N)NC(=O)[C@H](CC(N)=O)NC1=O [compound 14] (cyclo(R[2Nal]RR[Bip][AEEA][2Nal]RN)) | >64 | >64 | 32 (≈ 21.3 µM) | 32 (≈ 21.3 µM) | 68
13 | N=C(N)NCCC[C@@H]1NC(=O)[C@H](Cc2ccc3ccccc3c2)NC(=O)[C@H](CCCNC(=N)N)NC(=O)[C@H](CC(N)=O)NC(=O)[C@H](CCN)NC(=O)[C@H](Cc2ccc3ccccc3c2)NC(=O)COCCOCCNC(=O)[C@H](Cc2ccc(-c3ccccc3)cc2)NC(=O)[C@H](CCN)NC1=O [compound 15] (cyclo(R[2Nal]R[Dab][Bip][AEEA][2Nal][Dab]N)) | >64 | 64 (≈ 46.1 µM) | 16 (≈ 11.5 µM) | 8 (≈ 5.76 µM) | 
14 | N=C(N)NCCC[C@@H]1NC(=O)[C@H](Cc2ccc3ccccc3c2)NC(=O)[C@H](CCCNC(=N)N)NC(=O)[C@H](CC(N)=O)NC(=O)[C@H](CCN)NC(=O)[C@H](Cc2ccc3ccccc3c2)NC(=O)COCCOCCNC(=O)[C@H](Cc2ccccc2)NC(=O)[C@H](CCN)NC1=O [compound 16] (cyclo(R[2Nal]R[Dab]F[AEEA][2Nal][Dab]N)) | 64 (≈ 48.7 µM) | 64 (≈ 48.7 µM) | 16 (≈ 12.2 µM) |  | 16
